Test results published in ChEMBL document CHEMBL1201862, “PubChem BioAssay data set” (2004).
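How tested: cells in 96-well plates exposed to compound for 48 hours at five concentrations. GI50 marks 50% less growth.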 The source made the active and inactive calls. Rule as the data show it: active = GI50 up to about 1.1 µM and inactive = higher.

What was measured:
Experiment in all cases: inhibition of tumour cell growth, NCI panel, 48 h
[1] = system: 786-0
[2] = system: A549
[3] = system: ACHN
[4] = system: CAKI-1
[5] = system: COLO 205
[6] = system: DLD-1
[7] = system: DMS-273
[8] = system: EKVX
[9] = system: HCC 2998
[10] = system: HCT-15
[11] = system: HOP-62
[12] = system: HOP-92
[13] = system: HT-29
[14] = system: IGROV-1
[15] = system: KM-20L2
[16] = system: KM12
[17] = system: LOX IMVI
[18] = system: LXFL 529
[19] = system: M14
[20] = system: M19-MEL
[21] = system: NCI-H23
[22] = system: NCI-H460
[23] = system: NCI-H522
[24] = system: OVCAR-3
[25] = system: OVCAR-4
[26] = system: OVCAR-8
[27] = system: SF-268
[28] = system: SF-295
[29] = system: SK-MEL-28
[30] = system: SK-MEL-2
[31] = system: SK-MEL-5
[32] = system: SK-OV-3
[33] = system: SN12C
[34] = system: SNB-19
[35] = system: SW-620
[36] = system: TK-10
[37] = system: U-251
[38] = system: UACC-257
[39] = system: UACC-62
[40] = system: UO-31
[41] = system: A498
[42] = system: BT-549
[43] = system: CCRF-CEM
[44] = system: DU-145
[45] = system: HCT-116
[46] = system: HL-60
[47] = system: Hs-578T
[48] = system: K562
[49] = system: MCF7
[50] = system: MDA-MB-231
[51] = system: MDA-MB-435
[52] = system: MDA-N
[53] = system: MOLT-4
[54] = system: Malme-3M
[55] = system: NCI-H226
[56] = system: NCI/ADR-RES
[57] = system: OVCAR-5
[58] = system: PC-3
[59] = system: RPMI-8226
[60] = system: RXF 393
[61] = system: SF-539
[62] = system: SNB-75
[63] = system: SR
[64] = system: T47D

## Cc1ccc(C(N)=O)cc1/N=N/N(C)C
[1]
  GI50: > 100 µM (inactive)
[2]
  GI50: > 100 µM (inactive)
[3]
  GI50: > 100 µM (inactive)
[4]
  GI50: > 100 µM (inactive)
[5]
  GI50: > 100 µM (inactive)
[6]
  GI50: > 100 µM (inactive)
[7]
  GI50: > 100 µM (inactive)
[8]
  GI50: > 100 µM (inactive)
[9]
  GI50: > 100 µM (inactive)
[10]
  GI50: > 100 µM
[11]
  GI50: > 100 µM (inactive)
[12]
  GI50: > 100 µM (inactive)
[13]
  GI50: > 100 µM (inactive)
[14]
  GI50: > 100 µM (inactive)
[15]
  GI50: > 100 µM (inactive)
[16]
  GI50: > 100 µM (inactive)
[17]
  GI50: > 100 µM (inactive)
[18]
  GI50: > 100 µM (inactive)
[19]
  GI50: > 100 µM (inactive)
[20]
  GI50: > 100 µM (inactive)
[21]
  GI50: > 100 µM (inactive)
[22]
  GI50: > 100 µM (inactive)
[23]
  GI50: > 100 µM (inactive)
[24]
  GI50: > 100 µM (inactive)
[25]
  GI50: > 100 µM (inactive)
[26]
  GI50: > 100 µM (inactive)
[27]
  GI50: > 100 µM (inactive)
[28]
  GI50: > 100 µM (inactive)
[29]
  GI50: > 100 µM (inactive)
[30]
  GI50: > 100 µM (inactive)
[31]
  GI50: > 100 µM (inactive)
[32]
  GI50: > 100 µM (inactive)
[33]
  GI50: > 100 µM (inactive)
[34]
  GI50: > 100 µM (inactive)
[35]
  GI50: > 100 µM (inactive)
[36]
  GI50: > 100 µM (inactive)
[37]
  GI50: > 100 µM (inactive)
[38]
  GI50: > 100 µM (inactive)
[39]
  GI50: > 100 µM (inactive)
[40]
  GI50: > 100 µM (inactive)

## NC1=Nc2ccccc2Sc2nnc(-c3ccc(Cl)cc3)n21
[1]
  GI50: 24 µM (inactive)
[41]
  GI50: 20.4 µM (inactive)
[2]
  GI50: 49.3 µM (inactive)
[3]
  GI50: 47 µM (inactive)
[42]
  GI50: > 100 µM (inactive)
[4]
  GI50: 72.4 µM (inactive)
[43]
  GI50: 14.8 µM (inactive)
[5]
  GI50: 76.7 µM (inactive)
[44]
  GI50: 49.2 µM (inactive)
[8]
  GI50: 75.3 µM (inactive)
[9]
  GI50: > 100 µM (inactive)
[45]
  GI50: 9.53 µM (inactive)
[10]
  GI50: 7.16 µM
[46]
  GI50: 8.59 µM (inactive)
[11]
  GI50: 23.7 µM (inactive)
[12]
  GI50: 68.2 µM (inactive)
[13]
  GI50: > 100 µM (inactive)
[47]
  GI50: 35.2 µM (inactive)
[14]
  GI50: 48.8 µM (inactive)
[48]
  GI50: 12.2 µM (inactive)
[16]
  GI50: 98.2 µM (inactive)
[17]
  GI50: 7.03 µM (inactive)
[19]
  GI50: > 100 µM (inactive)
[49]
  GI50: > 100 µM (inactive)
[50]
  GI50: 21.5 µM (inactive)
[51]
  GI50: > 100 µM (inactive)
[52]
  GI50: > 100 µM (inactive)
[53]
  GI50: 13.9 µM (inactive)
[54]
  GI50: > 100 µM (inactive)
[55]
  GI50: > 100 µM (inactive)
[21]
  GI50: > 100 µM (inactive)
[22]
  GI50: 21.9 µM (inactive)
[23]
  GI50: 8.18 µM (inactive)
[56]
  GI50: 33.2 µM (inactive)
[24]
  GI50: > 100 µM (inactive)
[25]
  GI50: > 100 µM (inactive)
[57]
  GI50: > 100 µM (inactive)
[26]
  GI50: 26.7 µM (inactive)
[58]
  GI50: 16.5 µM (inactive)
[59]
  GI50: 87.3 µM (inactive)
[60]
  GI50: 22.8 µM (inactive)
[27]
  GI50: 19.5 µM (inactive)
[28]
  GI50: 29.6 µM (inactive)
[61]
  GI50: 26.2 µM (inactive)
[29]
  GI50: > 100 µM (inactive)
[30]
  GI50: > 100 µM (inactive)
[31]
  GI50: 68.5 µM (inactive)
[32]
  GI50: > 100 µM (inactive)
[33]
  GI50: 38.1 µM (inactive)
[34]
  GI50: 46.8 µM (inactive)
[62]
  GI50: 17.3 µM (inactive)
[63]
  GI50: 11.2 µM (inactive)
[35]
  GI50: 57.1 µM (inactive)
[64]
  GI50: > 100 µM (inactive)
[36]
  GI50: 40.8 µM (inactive)
[37]
  GI50: 13.7 µM (inactive)
[38]
  GI50: > 100 µM (inactive)
[39]
  GI50: 61.4 µM (inactive)
[40]
  GI50: > 100 µM (inactive)
